# Assay results published in ChEMBL document CHEMBL1201862, “PubChem BioAssay data set” (2004).
#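 Cultured in 96-well plates, cells were exposed to test compound for 48 hours across five concentrations. GI50: concentration for 50% inhibition of growth.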 Calls of active or inactive are those of the source. Rule as the data show it: active = GI50 up to about 1.1 µM and inactive = higher.
# Key:
# Experiment in all cases: NCI tumour cell line growth inhibition, 48 h
# 786-0 = tested on: 786-0
# A498 = tested on: A498
# A549 = tested on: A549
# ACHN = tested on: ACHN
# CAKI-1 = tested on: CAKI-1
# CCRF-CEM = tested on: CCRF-CEM
# COLO 205 = tested on: COLO 205
# DLD-1 = tested on: DLD-1
# DMS-114 = tested on: DMS-114
# DMS-273 = tested on: DMS-273
# EKVX = tested on: EKVX
# HCC 2998 = tested on: HCC 2998
# HCT-116 = tested on: HCT-116
# HCT-15 = tested on: HCT-15
# HOP-18 = tested on: HOP-18
# HOP-62 = tested on: HOP-62
# HOP-92 = tested on: HOP-92
# HT-29 = tested on: HT-29
# IGROV-1 = tested on: IGROV-1
# K562 = tested on: K562
# KM-20L2 = tested on: KM-20L2
# KM12 = tested on: KM12
# LOX IMVI = tested on: LOX IMVI
# LXFL 529 = tested on: LXFL 529
# M14 = tested on: M14
# M19-MEL = tested on: M19-MEL
# MOLT-4 = tested on: MOLT-4
# Malme-3M = tested on: Malme-3M
# NCI-H226 = tested on: NCI-H226
# NCI-H23 = tested on: NCI-H23
# NCI-H460 = tested on: NCI-H460
# NCI-H522 = tested on: NCI-H522
# OVCAR-3 = tested on: OVCAR-3
# OVCAR-4 = tested on: OVCAR-4
# OVCAR-5 = tested on: OVCAR-5
# RPMI-8226 = tested on: RPMI-8226
# RXF 393 = tested on: RXF 393
# RXF 631 = tested on: RXF 631
# SF-268 = tested on: SF-268
# SF-295 = tested on: SF-295
# SF-539 = tested on: SF-539
# SK-MEL-28 = tested on: SK-MEL-28
# SK-MEL-2 = tested on: SK-MEL-2
# SK-MEL-5 = tested on: SK-MEL-5
# SK-OV-3 = tested on: SK-OV-3
# SN12C = tested on: SN12C
# SNB-19 = tested on: SNB-19
# SNB-75 = tested on: SNB-75
# SNB-78 = tested on: SNB-78
# SR = tested on: SR
# SW-620 = tested on: SW-620
# TK-10 = tested on: TK-10
# U-251 = tested on: U-251
# UACC-257 = tested on: UACC-257
# UACC-62 = tested on: UACC-62
# UO-31 = tested on: UO-31
# HL-60 = tested on: HL-60
# OVCAR-8 = tested on: OVCAR-8
# XF498 = tested on: XF498
structure (smiles),measurement,setting,value
Cc1c(Cl)cccc1NC(=O)/C(Cl)=C(\Cl)C(=O)O,GI50,786-0,18.4 µM (inactive)
same,GI50,A498,45.1 µM (inactive)
same,GI50,A549,19.5 µM (inactive)
same,GI50,ACHN,17.5 µM (inactive)
same,GI50,CAKI-1,17.3 µM (inactive)
same,GI50,CCRF-CEM,4.14 µM (inactive)
same,GI50,COLO 205,9.4 µM (inactive)
same,GI50,DLD-1,18.2 µM (inactive)
same,GI50,DMS-114,21.2 µM (inactive)
same,GI50,DMS-273,20.9 µM (inactive)
same,GI50,EKVX,> 10 µM (inactive)
same,GI50,HCC 2998,20.3 µM (inactive)
same,GI50,HCT-116,14.2 µM (inactive)
same,GI50,HCT-15,16.4 µM
same,GI50,HOP-18,17.5 µM (inactive)
same,GI50,HOP-62,31.8 µM (inactive)
same,GI50,HOP-92,17.4 µM (inactive)
same,GI50,HT-29,19.2 µM (inactive)
same,GI50,IGROV-1,19.5 µM (inactive)
same,GI50,K562,6.19 µM (inactive)
same,GI50,KM-20L2,21.6 µM (inactive)
same,GI50,KM12,17.3 µM (inactive)
same,GI50,LOX IMVI,18.7 µM (inactive)
same,GI50,LXFL 529,19.8 µM (inactive)
same,GI50,M14,16.1 µM (inactive)
same,GI50,M19-MEL,17 µM (inactive)
same,GI50,MOLT-4,7.43 µM (inactive)
same,GI50,Malme-3M,17.8 µM (inactive)
same,GI50,NCI-H226,20.7 µM (inactive)
same,GI50,NCI-H23,19.5 µM (inactive)
same,GI50,NCI-H460,> 100 µM (inactive)
same,GI50,NCI-H522,2.1 µM (inactive)
same,GI50,OVCAR-3,19 µM (inactive)
same,GI50,OVCAR-4,16.9 µM (inactive)
same,GI50,OVCAR-5,16.9 µM (inactive)
same,GI50,RPMI-8226,11.8 µM (inactive)
same,GI50,RXF 393,19.9 µM (inactive)
same,GI50,RXF 631,24.8 µM (inactive)
same,GI50,SF-268,22.6 µM (inactive)
same,GI50,SF-295,19.4 µM (inactive)
same,GI50,SF-539,17 µM (inactive)
same,GI50,SK-MEL-28,20.5 µM (inactive)
same,GI50,SK-MEL-2,19.8 µM (inactive)
same,GI50,SK-MEL-5,20.5 µM (inactive)
same,GI50,SK-OV-3,18.9 µM (inactive)
same,GI50,SN12C,17.4 µM (inactive)
same,GI50,SNB-19,44.8 µM (inactive)
same,GI50,SNB-75,18.7 µM (inactive)
same,GI50,SNB-78,20 µM (inactive)
same,GI50,SR,5.26 µM (inactive)
same,GI50,SW-620,19.4 µM (inactive)
same,GI50,TK-10,20.9 µM (inactive)
same,GI50,U-251,18.5 µM (inactive)
same,GI50,UACC-257,19.3 µM (inactive)
same,GI50,UACC-62,13.2 µM (inactive)
same,GI50,UO-31,18.7 µM (inactive)
O=[N+]([O-])c1cccc(/C=N/C23CC4CC(CC(C4)C2)C3)c1,GI50,786-0,> 100 µM (inactive)
same,GI50,A498,> 100 µM (inactive)
same,GI50,A549,> 100 µM (inactive)
same,GI50,ACHN,> 100 µM (inactive)
same,GI50,CAKI-1,> 100 µM (inactive)
same,GI50,CCRF-CEM,25.1 µM (inactive)
same,GI50,COLO 205,> 100 µM (inactive)
same,GI50,DLD-1,> 100 µM (inactive)
same,GI50,DMS-114,> 100 µM (inactive)
same,GI50,DMS-273,> 100 µM (inactive)
same,GI50,EKVX,> 100 µM (inactive)
same,GI50,HCC 2998,> 100 µM (inactive)
same,GI50,HCT-116,> 100 µM (inactive)
same,GI50,HCT-15,> 100 µM
same,GI50,HL-60,23.9 µM (inactive)
same,GI50,HOP-18,> 100 µM (inactive)
same,GI50,HOP-62,> 100 µM (inactive)
same,GI50,HOP-92,> 100 µM (inactive)
same,GI50,HT-29,> 100 µM (inactive)
same,GI50,IGROV-1,> 100 µM (inactive)
same,GI50,K562,29.7 µM (inactive)
same,GI50,KM-20L2,> 100 µM (inactive)
same,GI50,KM12,> 100 µM (inactive)
same,GI50,LOX IMVI,63.7 µM (inactive)
same,GI50,LXFL 529,> 100 µM (inactive)
same,GI50,M14,> 100 µM (inactive)
same,GI50,M19-MEL,> 100 µM (inactive)
same,GI50,MOLT-4,74.1 µM (inactive)
same,GI50,Malme-3M,> 100 µM (inactive)
same,GI50,NCI-H226,> 100 µM (inactive)
same,GI50,NCI-H23,> 100 µM (inactive)
same,GI50,NCI-H460,> 100 µM (inactive)
same,GI50,NCI-H522,> 100 µM (inactive)
same,GI50,OVCAR-3,> 100 µM (inactive)
same,GI50,OVCAR-4,> 100 µM (inactive)
same,GI50,OVCAR-5,> 100 µM (inactive)
same,GI50,OVCAR-8,> 100 µM (inactive)
same,GI50,RPMI-8226,> 10 µM (inactive)
same,GI50,RXF 393,> 100 µM (inactive)
same,GI50,SF-268,> 100 µM (inactive)
same,GI50,SF-295,> 100 µM (inactive)
same,GI50,SF-539,> 100 µM (inactive)
same,GI50,SK-MEL-28,> 100 µM (inactive)
same,GI50,SK-MEL-2,> 100 µM (inactive)
same,GI50,SK-MEL-5,70.8 µM (inactive)
same,GI50,SK-OV-3,> 100 µM (inactive)
same,GI50,SN12C,> 100 µM (inactive)
same,GI50,SNB-19,> 100 µM (inactive)
same,GI50,SNB-75,> 100 µM (inactive)
same,GI50,SNB-78,> 100 µM (inactive)
same,GI50,SW-620,57.1 µM (inactive)
same,GI50,TK-10,> 100 µM (inactive)
same,GI50,U-251,> 100 µM (inactive)
same,GI50,UACC-257,> 100 µM (inactive)
same,GI50,UACC-62,> 100 µM (inactive)
same,GI50,UO-31,> 100 µM (inactive)
same,GI50,XF498,> 100 µM (inactive)
